The data set can be described thus: Karl-Fischer titration for water determination. It is filed as physicochemical. The note with it: dimesylate. The method, then:
Karl-Fischer titration for water determination was done using a Mettler Toledo C20S Coulometric KF Titrator equipped with a current generator cell with a diaphragm, and a doubleplatinum-pin electrode. Aquastar™ CombiCoulomat fritless reagent was used in both the anode and cathode compartments. Samples of approximately 0.03-0.10 g were dissolved in the anode compartment and titrated until the solution potential dropped below 100 mV. Hydranal 1 wt. % water standard is used for validation prior to sample analysis.

From US12617767B2, “Crystalline forms of somatostatin modulators” (Crinetics Pharmaceuticals, Inc., priority 2019, dated 2026) come the findings set out here.

Take `CS(=O)(=O)O.CS(=O)(=O)O.N#Cc1cccc(-c2ccc3ncc(-c4cc(F)cc(F)c4)c(N4CCC(N)CC4)c3c2)c1O` [Pattern B, 3-(4-(4-aminopiperidin-1-yl)-3-(3,5-difluorophenyl)quinolin-6-yl)-2-hydroxybenzonitrile dimesylate]: the “Water Content” value is 4.2% w/w.
